The values that follow come from patent EP0428132A1, “Pradimicin derivatives” (Bristol-Myers Squibb Company, priority 1989, dated 1991).

In brackets after ≈: the same amount, converted by molar mass.

The test system of series [1] is FA21436. Nature of the series: In vitro antifungal activity, serial agar dilution method (Table 1). The note with it: for MIC: 40 h, pH 7, read-out: MIC, Asoergukkys flavus FA21436; for Partial Inhibition, Asoergukkys flavus FA21436: value in parentheses = Partial Inhibition, Sabouraud dextrose agar (pH 7.0), 28°C for 40 hours. In kind it is cell-based, Asoergukkys flavus. The procedure:
(§1) The inoculum size was adjusted to 10⁶ cells/ml, and a volume of approximately 0.003 ml of fungal suspension was applied to the surface of the antibiotic containing agar plates with a multiinoculator. After incubation, the lowest concentration of antibiotic causing virtually complete inhibition of fungal growth was determined as the minimum inhibitory concentration (MIC). Table 1. [table]
A general note: Agar dilution tests growth on a series of plates holding different concentrations.

Series [2] relates to Blastomyces dermatidis D40. The series is described as above. The following applies: for MIC: Blastomyces, D40, 40 h, pH 7, read-out: MIC, Blastomyces dermatidis D40. The format is cell-based. The protocol: as §1
In series [3] the test system is Mucor spinosus IFO5317. The description is as above. The following applies: Sabouraud dextrose agar (pH 7.0), 28°C for 40 hours; for MIC: Mucor spinosus, IFO5317; for Partial Inhibition, Mucor spinosus IFO5317: value in parentheses = Partial Inhibition. In kind it is cell-based. The protocol: as §1
In series [4] the test system is Candida albicans IAM4888. The description is as above. In kind it is cell-based. The following applies: Sabouraud dextrose agar (pH 7.0), 28°C for 40 hours; for MIC: Candida albicans, IAM4888. The procedure:
as §1

For series [5], the system named is Fusarium moniliforme A2284. The description is as above. The format is cell-based. The note with it: Fusarium verticillioides, A2284; Sabouraud dextrose agar (pH 7.0); 28°C for 40 hours. The protocol:
as §1

For series [6], the system named is Trichophyton mentagrophytes D155. The description is as above. The note with it: Trichophyton mentagrophytes, D155; Sabouraud dextrose agar (pH 7.0); 28°C for 40 hours. The format is cell-based. The procedure: as §1
Series [7] deals with Sprotricosis schenckii IFO8158. Described as above. The format is cell-based. The following applies: for MIC: 40 h, pH 7, read-out: MIC, Sprotricosis schenckii IFO8158. The protocol: as §1
Series [8] relates to Aspergillus fumigatus IAM2034. Described as above. The note with it: Sabouraud dextrose agar (pH 7.0), 28°C for 40 hours; for MIC: Aspergillus fumigatus, IAM2034. In kind it is cell-based. The procedure: as §1
In series [9] the test system is Aspergillus fumigatus IAM2530. The description is as above. The format is cell-based. The note with it: Sabouraud dextrose agar (pH 7.0), 28°C for 40 hours; for MIC: Aspergillus fumigatus, IAM2530. The protocol: as §1
For series [10], the system named is Petriellidium boydii IFO8078. Described as above. The format is cell-based. The note with it: Scedosporium boydii, IFO8078; Sabouraud dextrose agar (pH 7.0); 28°C for 40 hours. The procedure: as §1
Series [11] relates to Trichophyton mentagrophytes #4329. Described as above. The note with it: Sabouraud dextrose agar (pH 7.0), 28°C for 40 hours; for MIC: Trichophyton mentagrophytes. In kind it is cell-based. The protocol:
as §1

In series [12] the test system is Candida albicans A9540. Described as above. The format is cell-based. The note with it: Sabouraud dextrose agar (pH 7.0), 28°C for 40 hours; for MIC: Candida albicans, A9540. The procedure:
as §1

Series [13] relates to Cryptococcus neoformans D49. Described as above. The following applies: Cryptococcus neoformans, D49, 40 h, pH 7, read-out: MIC, Cryptococcus neoformans D49. In kind it is cell-based. The protocol: as §1
The subject of series [14] is Cryptococcus neoformans IAM4514. Described as above. In kind it is cell-based. The following applies: Cryptococcus neoformans, IAM4514; Sabouraud dextrose agar (pH 7.0); 28°C for 40 hours. The protocol:
as §1

Series [15] can be described thus: physchem.
Method: The sample (3 ∼ 3.5 mg) was suspended in 1 ml of PBS(-) or PBS(+), sonicated at 30°C for 10 minutes, and allowed to stand at room temperature for 2 hours. The resulting solution or suspension was centrifuged at 12,000 rpm for 10 minutes. The supernatant (pH 6.7 ∼ 7.2) was diluted (5 x or 50 x) with 0.01N NaOH (pH ca. 11.5) and its UV absorption at 500 nm was measured. The solubility was assessed by the absorption coefficient value with reference to the standard. […] The zwitterionic form sample was used for the solubility test as it is. The hydrochloride salt sample (3 mg) was dissolved in 3 ml of distilled water and neutralized with 0.01N NaOH, and then the solution was lyophilized to give a test sample.
Dulbecco's phosphate buffered saline (PBS) solution was used. Preparation of PBS(-) solution: One PBS(-) tablet (Flow Laboratories, Cat. No. 28-103-05) was dissolved in 100 ml distilled water, and the solution was autoclaved for 10 minutes at 115°C. This solution contains 0.2 g/L of KCl, 0.2 g/L of KH₂PO₄, 8 g/L of NaCl, and 1.15 g/L of Na₂HPO₄. Preparation of PBS(+) solution: One PBS(-) tablet was dissolved in 80 ml distilled water; 10 mg of CaCl₂ was dissolved in 10 ml distilled water; 10 mg of MgCl₂, 6H₂O was dissolved in 10 ml distilled water. These solutions were separately autoclaved, as described above, and mixed when cooled.
Series [16] concerns Candida albicans A9540. Briefly: Intravenous Candida albicans infection mouse model, Table 2 part A. The format is in vivo. The note with it: drug administered once just after infection, 20 days after fungal challenge, method of Litchfield and Wilcoxon, male ICR mice. The procedure: Several compounds were also evaluated in an intravenous Candida albicans […] infection mouse model. The test organism was suspended in saline approximately 10 times the median lethal dose of the fungus (10⁶ cells/mouse) were used to infect intravenously male ICR mice weighing 20 to 24 g. Groups of five mice at each dose level were given the test compounds intravenously or intramuscularly. The 50% protective dose (PD₅₀) was calculated from survival rates recorded 20 or 21 days after the fungal challenge. Control animals died between 7 to 15 days.

Setting [17] is: value in parentheses = Partial Inhibition.
Setting [18] is: value in parentheses = Partial Inhibition, Sabouraud dextrose agar (pH 7.0), 28°C for 40 hours.

As for `COc1cc(O)c2c(c1)C(=O)c1c(cc3c(c1O)-c1c(cc(C)c(C(=O)N[C@H](C)C(=O)O)c1O)[C@H](O[C@@H]1O[C@H](C)[C@H](N(C)C(=O)CCN)[C@H](O[C@@H]4OC[C@@H](O)[C@H](O)[C@H]4O)[C@H]1O)[C@H]3O)C2=O` [Ex. 11, N-(β-alanyl) pradimicin A], the MIC – broadly, the least concentration at which growth counts as inhibited – in series [1] is over 100 µg/mL; in series [2] it was 12.5 µg/mL (≈ 13.7 µM); in series [3], over 100 µg/mL; in [4] it was 12.5 µg/mL (≈ 13.7 µM); in [5] it was over 100 µg/mL; in series [6], 100 µg/mL (≈ 110 µM). The MIC in series [7] was 6.3 µg/mL (≈ 6.91 µM); in [8] it was 100 µg/mL (≈ 110 µM); in series [9] it was 50 µg/mL (≈ 54.8 µM); in [10], over 100 µg/mL; in series [11], 100 µg/mL (≈ 110 µM); in series [12], 12.5 µg/mL (≈ 13.7 µM). Also, the MIC in series [13] and in series [14] was 1.6 µg/mL (≈ 1.75 µM) each time. The “Partial Inhibition, Asoergukkys flavus FA21436” value in series [1] is given as >100.0 (100.0) µg/ml. Moreover, the “Partial Inhibition, Mucor spinosus IFO5317” value in series [3] was 25.0 µg/mL. The “Partial Inhibition, Candida albicans IAM4888” value in series [4] (setting [17]) worked out at 6.3 µg/mL. Moreover, the “Partial Inhibition, Candida albicans A9540” value in series [12] (setting [17]) is 6.3 µg/mL. Further, the concentration in solution in [15] (Method II (+): PBS(+)) (solubility at 2 h) came to 250 µg/mL (≈ 274 µM). The PD₅₀ in series [16] was determined as 36 mg/kg.
As to `COc1cc(O)c2c(c1)C(=O)c1c(cc3c(c1O)-c1c(cc(C)c(C(=O)N[C@H](C)C(=O)O)c1O)[C@H](O[C@@H]1O[C@H](C)[C@H](NCS(=O)(=O)O)[C@H](O[C@@H]4OC[C@@H](O)[C@H](O)[C@H]4O)[C@H]1O)[C@H]3O)C2=O` [Ex. 7, N-(sodiosulfomethyl) pradimicin C], the MIC in series [1] is over 50 µg/mL; in series [2], 3.1 µg/mL (≈ 3.37 µM); in series [3] it was over 50 µg/mL; in series [4], 3.1 µg/mL (≈ 3.37 µM); in series [5], over 50 µg/mL; in [6] it was 50 µg/mL (≈ 54.3 µM). The MIC was 1.6 µg/mL (≈ 1.74 µM) in series [7]; over 50 µg/mL in series [8]; 3.1 µg/mL (≈ 3.37 µM) in series [9]; over 50 µg/mL in series [10]; 25 µg/mL (≈ 27.1 µM) in [11]; 3.1 µg/mL (≈ 3.37 µM) in [12]. The MIC in [13] and in series [14] was 0.4 µg/mL (≈ 0.434 µM) in each case. Also, in [1], the “Partial Inhibition, Asoergukkys flavus FA21436” value turned out to be 3.1 µg/mL. Further, in series [11] (setting [17]), the “Partial Inhibition, Trichophyton mentagrophytes #4329” value is 3.1 µg/mL. For the same compound, in series [15] (Method II (-): PBS(-)), the solubility (usually how much of the substance goes into solution per volume) at 2 h was 3 µg/mL (≈ 3.26 µM). Moreover, the PD₅₀ in [16] is 7.2 mg/kg.
`CCOC(=O)CN(C)[C@@H]1[C@H](O[C@@H]2OC[C@@H](O)[C@H](O)[C@H]2O)[C@@H](O)[C@H](O[C@H]2c3cc(C)c(C(=O)N[C@H](C)C(=O)O)c(O)c3-c3c(cc4c(c3O)C(=O)c3cc(OC)cc(O)c3C4=O)[C@@H]2O)O[C@@H]1C` [Ex. 3, N-(ethoxycarbonylmethyl) pradimicin A]: the MIC is over 100 µg/mL in series [1]; 100 µg/mL (≈ 108 µM) in series [2]; over 100 µg/mL in [3]; 25 µg/mL (≈ 27 µM) in [4]; over 100 µg/mL in series [5]; over 100 µg/mL in series [6]. In addition, the MIC was 25 µg/mL (≈ 27 µM) in [7]; over 100 µg/mL in [8]; 50 µg/mL (≈ 53.9 µM) in series [9]; over 100 µg/mL in [10]; over 100 µg/mL in [11]; 50 µg/mL (≈ 53.9 µM) in [12]. For the same compound, the MIC in series [13] and in [14] was 6.3 µg/mL (≈ 6.8 µM) each time. Further, the “Partial Inhibition, Asoergukkys flavus FA21436” value in series [1] was found to be 50.0 µg/mL. Moreover, in series [2] (setting [18]), the “Partial Inhibition, Blastomyces dermatidis D40” value worked out at 12.5 µg/mL. Further, the “Partial Inhibition, Mucor spinosus IFO5317” value in series [3] was >100.0 (100.0) µg/ml. Moreover, the “Partial Inhibition, Sprotricosis schenckii IFO8158” value in series [7] (setting [18]) came out at 12.5 µg/mL. Besides, in series [8] (setting [17]), the “Partial Inhibition, Aspergillus fumigatus IAM2034” value is >100.0 (100.0) µg/ml. The “Partial Inhibition, Aspergillus fumigatus IAM2530” value in [9] (setting [17]) came to 25.0 µg/mL. Besides, in [15] (Method II (-): PBS(-)), the solubility at 2 h was 11000 µg/mL (≈ 11900 µM). In series [16], this compound returned a PD₅₀ of 18 mg/kg.
